Each block holds one compound with its values, some of them ahead of it.
Experiments:
MTHFD1^KO cells = assay: growth of MTHFD1^KO cells in dialyzed serum media with compound supplementation; format: cell-based
Protocol: MTHFD1^KO cells in dialyzed FBS media were treated with a single nucleotide or folic acid metabolite for 72 hours. Cells were then stained with Hoechst, imaged, and counted using an Operetta (Perkin Elmer). For the AMPK activator studies, cells were stained with Hoechst, imaged, and counted using an Opera (Perkin Elmer). Similarly, MTHFD1^K56R cells in dialyzed FBS media were treated with adenosine for 72 hours. Cells were then stained with Hoechst, imaged, and counted using an Operetta (Perkin Elmer).
MTHFD1^KO cells (F5 clone) in dialyzed FBS media were treated with the CeMM compound library (89,228 chemically diverse compounds). Both cell number, using Hoechst staining, and CellTiter-Glo (Promega), an indicator of metabolically active cells, was both used as a readout, depending on the stage of the screen.
Briefly, the screening was divided into the three parts (i) primary screening, (ii) follow-up and (iii) validation. During the primary screen, MTHFD1^KO cells were treated with 10 μM of every compound and CellTiter-Glo (Promega) was used to assess their ability to increase cell growth after 48 hours. From this primary screening, 17 compounds were selected as hits and rescreened in the follow-up part, in which the MTHFD1^KO cells were treated in a six-point dose response for 72 hours to discard any false positives. Finally, in the validation part, MTHFD1^KO cells were treated with 10 compounds in an eight-point dose response curve and the cell numbers were counted by staining with Hoechst, imaging and counting nuclei using the Opera Phenix (Perkin Elmer) and Harmony software (Perkin Elmer).

NUDT14 = biological target: T1, NUDT14 (Homo sapiens, UniProt O95848); assay: AMP-Glo catalytic assay, NUDT14; format: biochemical; details: 2 nM NUDT14, ADPr substrate, 1 hour, mean±SD; read-out: NUDT14 IC50
T1 sequence (O95848 1-222): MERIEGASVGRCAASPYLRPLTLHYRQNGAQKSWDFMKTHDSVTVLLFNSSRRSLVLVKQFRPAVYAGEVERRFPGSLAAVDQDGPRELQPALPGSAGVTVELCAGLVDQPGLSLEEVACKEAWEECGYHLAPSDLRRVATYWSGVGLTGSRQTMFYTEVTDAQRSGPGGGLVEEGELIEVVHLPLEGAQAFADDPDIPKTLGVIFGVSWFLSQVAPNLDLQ
Protocol: To identify alternative X groups, a screening exercise was performed. […] Inhibition activities of the compounds were determined using AMP-Glo system (Promega). The compounds were diluted from 50 μM to 0 μM in a final reaction containing 20 mM Hepes, 100 mM NaCl, 0.5 mM TCEP, 1 mM MgCl2 and 0.1% BSA, pH 7.4. The reactions were performed in 1536 well plate in […] reaction volume with 2 nM of NUDT5 and NUDT14, and […] of ADPr as the substrate. The final DMSO concentration was 0.5% for all reactions. NUDT5 reactions were incubated for 20 minutes while NUDT14 reactions were carried out for 1 hour at room temperature. […] The reactions were further incubated with the 4 μl of Detection solution for 1 hour at room temperature. Luminescence signals were then measured in PHERAstar FSX plate reader. Experiments were done in triplicate sets and data were analysed by GraphPad Prism 9. Data are represented as the mean±SD of three biological experiments: […]

NUDT5 [1] = biological target: T2, NUDT5 (Homo sapiens, UniProt Q9UKK9); assay: NUDT5 degradation by Western blot in HEK293 cells; format: cell-based; set-up: endogenous in cells; host or cells: HEK293 (also CRBN knock-out HEK293 for A13)
Protocol: For Western blots, proteins were separated on polyacrylamide gels with SDS running buffer (50 mM Tris, 380 mM Glycine, 7 mM SDS) and transferred to PVDF membranes. All membranes were then blocked with blocking buffer (5% w/v milk powder, BioRad) in TBST (50 mM Tris (tris(hydroxymethylaminomethane), 150 mM NaCl, 0.05% (v/v) Tween 20, adjusted to pH 7.6) Proteins were probed with antibodies against phospho-AMPK (50081S, 1:2000, Cell Signaling Technologies), AMPK (5832S, 1:2000, Cell Signaling Technologies), PML (ab179466, 1:1000, abeam), PARP8 (NBP213733, 1:1000, Novus Biologicals), ATF2/7 (82870, 1:1000, Cell Signaling Technologies), alpha-Tubulin (ab7291, 1:1000, Abeam), phospho-UBTF (ab182583, 1:1000, abeam), UBTF (HPA006385, 1:1000, Sigma), RBM38 (AV40862, 1:1000, Sigma), or NUDT5 (ab129172, 1:1000, abeam), detected by HRP (horse-radish peroxidase) conjugated donkey anti-rabbit IgG antibody (Pierce) or donkey anti-mouse antibody IgG antibody (Pierce) and visualized with Clarity ECL Western Blotting substrate (BioRad), according to provided protocol.

NUDT5 [2] = biological target: T2, NUDT5; assay: CRBN knock-out experiment, NUDT5 degradation; format: cell-based; set-up: endogenous in cells; host or cells: HEK293 (also CRBN knock-out HEK293 for A13); details: CRBN knock-out HEK293 cells, 20 h

SMILES: Nc1ncnc2c1ncn2[C@@H]1O[C@H](COP(=O)(O)O)[C@@H](O)[C@H]1O [AMP]
- rescue of growth in dialyzed serum (MTHFD1^KO cells): able to rescue the growth

- IC50 (NUDT14): 604 ± 116 nM
SMILES: Cn1nc(-c2ccc(Oc3ccccc3)cc2)c2c(N)ncnc21 [Compound 2]

- IC50 (NUDT14): 548 ± 37 nM
SMILES: Nc1ncnc2[nH]nc(-c3ccc(Oc4ccccc4)cc3)c12 [Compound 3]

- IC50 (NUDT14): 4270 ± 133 nM
SMILES: C=CC(=O)N1CCC=C(c2nn(C3CCN(C)CC3)c3ncnc(N)c23)C1 [Compound 5]

- IC50 (NUDT14): 377 ± 35 nM
SMILES: CN1CCC(n2nc(-c3ccc(NC(=O)CCl)cc3)c3c(N)ncnc32)CC1 [Compound 8]

- NUDT5 degradation at 100 nM, 20 h (%) (NUDT5 [1]): 52%
- Dmax (NUDT5 [1]; HEK293, NUDT5 degradation): 50%
SMILES: Cn1c(=O)c2c(nc(N3CCN(C(=O)CCOCCOCCNc4cccc5c4C(=O)N(C4CCC(=O)NC4=O)C5=O)CC3)n2Cc2nnc(-c3ccc(Cl)c(Cl)c3)o2)n(C)c1=O (centres unmarked) [Compound 068, 7-((5-(3,4-dichlorophenyl)-1,3,4-oxadiazol-2-yl)methyl)-8-(4-(3-(2-(2-((2-(2,6-dioxopiperidin-3-yl)-1,3-dioxoisoindolin-4-yl)amino)ethoxy)ethoxy)propanoyl)piperazin-1-yl)-1,3-dimethyl-3,7-dihydro-1H-purine-2,6-dione]

- NUDT5 degradation at 100 nM, 20 h (%) (NUDT5 [1]): 46%
SMILES: Cn1c(=O)c2c(nc(N3CCN(CCC4CCN(c5ccc6c(c5)C(=O)N(C5CCC(=O)NC5=O)C6=O)CC4)CC3)n2Cc2nnc(-c3ccc(Cl)c(Cl)c3)o2)n(C)c1=O (centres unmarked) [Compound 102, 7-((5-(3,4-dichlorophenyl)-1,3,4-oxadiazol-2-yl)methyl)-8-(4-(2-(1-(2-(2,6-dioxopiperidin-3-yl)-1,3-dioxoisoindolin-5-yl)piperidin-4-yl)ethyl)piperazin-1-yl)-1,3-dimethyl-3,7-dihydro-1H-purine-2,6-dione]

- dependence of degradation on E3 ligase (NUDT5 [2]): E3-ligase-dependant
- NUDT5 degradation at 100 nM, 20 h (%) (NUDT5 [1]): 76%
SMILES: Cn1c(=O)c2c(nc(N3CCN(C(=O)CCOCCOCCOCCNc4cccc5c4C(=O)N(C4CCC(=O)NC4=O)C5=O)CC3)n2Cc2nnc(-c3ccc(Cl)c(Cl)c3)o2)n(C)c1=O (centres unmarked) [Compound 127, 7-((5-(3,4-dichlorophenyl)-1,3,4-oxadiazol-2-yl)methyl)-8-(4-(3-(2-(2-(2-((2-(2,6-dioxopiperidin-3-yl)-1,3-dioxoisoindolin-4-yl)amino)ethoxy)ethoxy)ethoxy)propanoyl)piperazin-1-yl)-1,3-dimethyl-3,7-dihydro-1H-purine-2,6-dione]

- dependence of degradation on E3 ligase (NUDT5 [2]): E3-ligase-dependant
- NUDT5 degradation at 100 nM, 20 h (%) (NUDT5 [1]): 81%
SMILES: Cn1c(=O)c2c(nc(N3CCN(C(=O)CCOCCOCCOCCOCCNc4cccc5c4C(=O)N(C4CCC(=O)NC4=O)C5=O)CC3)n2Cc2nnc(-c3ccc(Cl)c(Cl)c3)o2)n(C)c1=O (centres unmarked) [Compound 130, 7-((5-(3,4-dichlorophenyl)-1,3,4-oxadiazol-2-yl)methyl)-8-(4-(1-((2-(2,6-dioxopiperidin-3-yl)-1,3-dioxoisoindolin-4-yl)amino)-3,6,9,12-tetraoxapentadecan-15-oyl)piperazin-1-yl)-1,3-dimethyl-3,7-dihydro-1H-purine-2,6-dione]

SMILES: Cc1cc2nc3c(=O)[nH]c(=O)nc-3n(C[C@H](O)[C@H](O)[C@H](O)COP(=O)(O)OP(=O)(O)OC[C@H]3O[C@@H](n4cnc5c(N)ncnc54)[C@H](O)[C@@H]3O)c2cc1C [FAD]
- rescue of growth in dialyzed serum (MTHFD1^KO cells): able to rescue the growth

SMILES: NC(=O)C1=CN([C@@H]2O[C@H](COP(=O)(O)OP(=O)(O)OC[C@H]3O[C@@H](n4cnc5c(N)ncnc54)[C@H](O)[C@@H]3O)[C@@H](O)[C@H]2O)C=CC1 [NADH]
- rescue of growth in dialyzed serum (MTHFD1^KO cells): able to rescue the growth

SMILES: NC(=O)c1ccc[n+]([C@@H]2O[C@H](COP(=O)([O-])OP(=O)(O)OC[C@H]3O[C@@H](n4cnc5c(N)ncnc54)[C@H](O)[C@@H]3O)[C@@H](O)[C@H]2O)c1 [NAD]
- rescue of growth in dialyzed serum (MTHFD1^KO cells): able to rescue the growth

SMILES: C[S+](CC[C@H](N)C(=O)[O-])C[C@H]1O[C@@H](n2cnc3c(N)ncnc32)[C@H](O)[C@@H]1O (some centres unmarked) [SAM]
- rescue of growth in dialyzed serum (MTHFD1^KO cells): able to rescue the growth

SMILES: O=c1[nH]cnc2nc[nH]c12 [hypoxanthine]
- rescue of growth in dialyzed serum (MTHFD1^KO cells): able to rescue the growth

From patent US20260200923A1, “HETEROCYCLIC COMPOUNDS TARGETING THE NUDT5 PROTEIN” (Oxford University Innovation Limited, priority 2022, published 2026)
